{
  "source": "patent US20180177744A1",
  "about": "“METHOD OF TREATING PAIN AND […] A HYBRID MIXTURE OF S-KETAMINE AND R-KETAMINE” (priority 2016, published 2018)",
  "origin": "cited, not measured here",
  "key": {"[1]": {"settings": "liquid formulation at 30 mg to 50 mg, intranasal (IN) route"}, "[2]": {"settings": "mice; versus esketamine"}, "[3]": {"settings": "in vivo"}, "[4]": {"settings": "for anaesthetic potency relative to arketamine (R-isomer): clinically, versus arketamine"}, "[5]": {"tested_on": "phencyclidine binding sites on the NMDA receptors", "settings": "versus arketamine"}, "dopamine transporters": {"tested_on": "dopamine transporters", "sequence (Q01959 whole entry)": "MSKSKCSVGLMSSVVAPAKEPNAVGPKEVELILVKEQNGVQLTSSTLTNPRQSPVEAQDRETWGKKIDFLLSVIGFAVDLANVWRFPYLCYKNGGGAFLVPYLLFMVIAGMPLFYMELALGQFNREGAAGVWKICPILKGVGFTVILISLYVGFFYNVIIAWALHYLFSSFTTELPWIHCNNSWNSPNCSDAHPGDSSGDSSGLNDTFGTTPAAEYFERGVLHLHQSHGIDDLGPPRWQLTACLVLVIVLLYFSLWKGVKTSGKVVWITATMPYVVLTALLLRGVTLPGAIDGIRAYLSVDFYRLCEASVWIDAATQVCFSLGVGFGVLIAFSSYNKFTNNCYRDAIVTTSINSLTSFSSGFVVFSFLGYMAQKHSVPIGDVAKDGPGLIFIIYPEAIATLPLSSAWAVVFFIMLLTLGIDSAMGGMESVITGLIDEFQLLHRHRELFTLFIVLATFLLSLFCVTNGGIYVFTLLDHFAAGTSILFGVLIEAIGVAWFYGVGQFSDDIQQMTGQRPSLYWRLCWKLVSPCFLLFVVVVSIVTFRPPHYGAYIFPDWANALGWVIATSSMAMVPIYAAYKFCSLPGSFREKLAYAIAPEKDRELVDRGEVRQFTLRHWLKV", "settings": "versus arketamine"}, "[6]": {"test": "not given", "remark": "listed apart in the source"}},
  "note": "Where two headings read alike, the source gives them in different places.",
  "data": [
    {"smiles": "CNC1(c2ccccc2Cl)CCCCC1=O", "note": "(racemic) [racemic ketamine, 2-(2-chlorphenyl)-2-(methylamino)-cyclohexanone]", "values": [
      {"measurement": "ability to stop acute and/or breakthrough pain", "setting": "[1]", "result": "stop acute and/or breakthrough pain"}
    ]},
    {"smiles": "CN[C@@]1(c2ccccc2Cl)CCCCC1=O", "note": "[arketamine, R(−)-ketamine]", "values": [
      {"measurement": "rapid antidepressant effect", "setting": "[2]", "result": "greater and lasted longer than that of esketamine"},
      {"measurement": "psychotomimetic effects", "setting": "in vivo", "result": "devoid of psychotomimetic effects"},
      {"measurement": "glucose metabolism in the brain", "setting": "[3]", "result": "decreases glucose metabolism in the brain"}
    ]},
    {"smiles": "CN[C@]1(c2ccccc2Cl)CCCCC1=O", "note": "[esketamine, S(+)-ketamine]", "values": [
      {"measurement": "binding to sigma receptors", "setting": "sigma receptors", "result": "does not bind significantly"},
      {"measurement": "anaesthetic potency relative to arketamine (R-isomer)", "setting": "[4]", "result": "3-4 times"},
      {"measurement": "anaesthetic potency relative to arketamine (R-isomer)", "setting": "[4]; listed as S(+)ketamine", "result": "three to four times"},
      {"measurement": "anesthetic potency relative to racemic ketamine", "setting": "[4]; versus racemic ketamine", "result": "two times"},
      {"measurement": "recovery of cerebral functions", "setting": "after anaesthesia, study persons", "result": "more rapid recovery of cerebral functions"},
      {"measurement": "glucose metabolism in the brain", "setting": "[3]", "result": "increases glucose metabolism in the frontal cortex"},
      {"measurement": "affinity for the PCP binding site of the NMDA receptor relative to arketamine", "setting": "[5]; listed as Esketamine", "result": "3-4 times"},
      {"measurement": "affinity for the PCP binding site of the NMDA receptor relative to arketamine", "setting": "[5]; listed as S(+)ketamine", "result": "three to four times greater"},
      {"measurement": "inhibition of dopamine transporters relative to arketamine", "setting": "dopamine transporters", "result": "eight times more"},
      {"measurement": "elimination from the human body", "setting": "[6]", "result": "more quickly than arketamine (R(−)-ketamine) or racemic ketamine"}
    ]}
  ]
}
